16 compounds from patent US10173991B2, “Sulfone amide linked benzothiazole inhibitors of endothelial lipase” (BRISTOL-MYERS SQUIBB COMPANY, priority 2014, dated 2019) can be followed below.

For one assay, the target named is Endothelial lipase (EL) (Homo sapiens (Human), UniProt Q9Y5X9). Description: Endothelial lipase (EL) enzymatic assay with fluorescent substrate A10070 in DMPG vesicles. It is filed as biochemical.
Endothelial lipase (EL), sequence (Q9Y5X9 21-500): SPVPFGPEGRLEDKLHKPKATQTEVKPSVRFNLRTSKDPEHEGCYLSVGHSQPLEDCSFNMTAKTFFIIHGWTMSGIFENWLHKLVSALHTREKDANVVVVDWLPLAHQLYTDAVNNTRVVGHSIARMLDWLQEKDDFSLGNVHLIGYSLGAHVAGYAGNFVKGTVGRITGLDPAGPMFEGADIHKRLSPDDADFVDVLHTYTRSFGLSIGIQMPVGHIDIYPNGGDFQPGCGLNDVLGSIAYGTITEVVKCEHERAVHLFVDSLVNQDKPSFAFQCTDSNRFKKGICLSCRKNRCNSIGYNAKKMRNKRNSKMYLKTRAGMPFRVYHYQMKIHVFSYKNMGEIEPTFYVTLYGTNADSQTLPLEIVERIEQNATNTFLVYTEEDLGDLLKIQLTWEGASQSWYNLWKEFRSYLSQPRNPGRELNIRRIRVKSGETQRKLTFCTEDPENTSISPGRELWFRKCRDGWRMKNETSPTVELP
Conditions: not given
Put shortly: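 Substrate A10070 sits in sonicated DMPG vesicles at 0.11 mole fraction. Lipase and compound preincubated 30 min, 37° C, in HEPES pH 8.0 buffer with CaCl2.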
For `O=C(CNC(=O)C(c1nc2ccc(-c3ccc4c(c3)CN(C3CC3)C4=O)cc2s1)S(=O)(=O)c1ccc(F)cc1)NC1CC1` (stereo not shown) [Example 597, 2-[6-(2-cyclopropyl-1-oxo-2,3-dihydro-1H-isoindol-5-yl)-1,3-benzothiazol-2-yl]-N-[(cyclopropyl-carbamoyl)methyl]-2-(4-fluorobenzene-sulfonyl)acetamide], inhibition was half-maximal at 7 nM (IC50).
Same read-out and setting: the value for `O=C(CNC(=O)C(c1nc2ccc(-c3ccnc(O)c3)cc2s1)S(=O)(=O)c1ccc(F)cc1)NC1CC1` (stereo not shown) [Example 599, N-[(cyclopropyl-carbamoyl)methyl]-2-(4-fluorobenzene-sulfonyl)-2-[6-(2-hydroxypyridin-4-yl)-1,3-benzothiazol-2-yl]acetamide] was 27 nM; that for `COCCS(=O)(=O)C(C(=O)NCC(=O)NC1CC1)c1nc2ccc(-c3ccnc(O)c3)cc2s1` (stereo not shown) [Example 600, N-[(cyclopropyl-carbamoyl)methyl]-2-[6-(2-hydroxypyridin-4-yl)-1,3-benzothiazol-2-yl]-2-(2-methoxyethane-sulfonyl)acetamide] was 14 nM; that for `CS(=O)(=O)C(C(=O)NCC(=O)NC1CC1)c1nc2cc(OC(F)F)c(-c3ccc(F)nc3)cc2s1` (stereo not shown) [Example 602, N-[(cyclopropyl-carbamoyl)methyl]-2-[5-(difluoromethoxy)-6-(6-fluoropyridin-3-yl)-1,3-benzothiazol-2-yl]-2-methanesulfonyl-acetamide] was 18 nM.
Compound `Cc1cc(-c2cc3sc(C(C(=O)NCC(=O)NC4CC4)S(C)(=O)=O)nc3cc2OC(F)F)cnn1` (stereo not shown) [Example 604, N-[(cyclopropyl-carbamoyl)methyl]-2-[5-(difluoromethoxy)-6-(6-methylpyridazin-4-yl)-1,3-benzothiazol-2-yl]-2-methanesulfonyl-acetamide] yielded an IC50 of 27 nM.
The same measure, in the same setting: the result for `CS(=O)(=O)C(C(=O)NCC(=O)NC1CC1)c1nc2cc(OC(F)F)c(-c3cccc(-n4cccn4)c3)cc2s1` (stereo not shown) [Example 605, N-[(cyclopropyl-carbamoyl)methyl]-2-[5-(difluoromethoxy)-6-[3-(1H-pyrazol-1-yl)phenyl]-1,3-benzothiazol-2-yl]-2-methanesulfonyl-acetamide] reads 3 nM; that for `CC(C)n1cc(-c2cc3sc(C(C(=O)NCC(=O)NC4CC4)S(C)(=O)=O)nc3cc2OC(F)F)ccc1=O` (stereo not shown) [Example 606], 4 nM; that for `COC(=O)Nc1ccc(-c2cc3sc(C(C(=O)NCC(=O)NC4CC4)S(C)(=O)=O)nc3cc2OC(F)F)cc1` (stereo not shown) [Example 607, methyl N-{4-[2-({[(cyclopropyl-carbamoyl)methyl]carbamoyl} (methanesulfonyl)methyl)-5-(difluoromethoxy)-1,3-benzothiazol-6-yl]phenyl} carbamate], 5 nM.
Turning to `CS(=O)(=O)C(C(=O)NCC(=O)NC1CC1)c1nc2ccc(-c3ccccc3)cc2s1` (stereo not shown) [Example 608, N-[(cyclopropyl-carbamoyl)methyl]-2-methanesulfonyl-2-(6-phenyl-1,3-benzothiazol-2-yl)acetamide], the IC50 was 152 nM.
`CS(=O)(=O)C(C(=O)NCC(=O)NC1CC1)c1nc2cc(F)c(-c3ccccc3)cc2s1` (stereo not shown) [Example 609, N-[(cyclopropyl-carbamoyl)methyl]-2-(5-fluoro-6-phenyl-1,3-benzothiazol-2-yl)-2-methanesulfonyl-acetamide]: the IC50 came to 2 nM.
`CS(=O)(=O)C(C(=O)NCC(=O)NC1CC1)c1nc2cc(-c3ccccc3)ccc2s1` (stereo not shown) [Example 610, N-[(cyclopropyl-carbamoyl)methyl]-2-methanesulfonyl-2-(5-phenyl-1,3-benzothiazol-2-yl)acetamide] registered an IC50 of 40 nM.
The same measure, in the same setting: the value for `COCCS(=O)(=O)C(C(=O)NCC(=O)NC1CC1)c1nc2cc(-c3ccccc3)c(F)cc2s1` (stereo not shown) [Example 612, N-[(cyclopropyl-carbamoyl)methyl]-2-(6-fluoro-5-phenyl-1,3-benzothiazol-2-yl)-2-(2-methoxyethane-sulfonyl)acetamide] was 3 nM; that for “propan-2-yl N-{4- [2-({[(cyclopropyl- carbamoyl)methyl] carbamoyl}(2- methoxyethane- sulfonyl)methyl)- 5-fluoro-1,3- benzothiazol- 6-yl]phenyl} carbamate [Example 540]” was 2 nM.

The assay is the same for the next values; noted with them: EL from conditioned media of HT-1080 cells; 30 min preincubation at 37° C.
`COCCS(=O)(=O)C(C(=O)NCC(=O)NC1CC1)c1nc2ccc(-c3ccnc(O)c3F)cc2s1` (stereo not shown) [Example 598, N-(2-(Cyclopropylamino)-2-oxoethyl)-2-(6-(3-fluoro-2-hydroxypyridin-4-yl)benzo[d]thiazol-2-yl)-2-((2-methoxyethyl)sulfonyl)acetamide] yielded an IC50 of 101 nM.
The same measure, in the same setting: the value for `Cc1ncc(-c2cc3sc(C(C(=O)NCC(=O)NC4CC4)S(C)(=O)=O)nc3cc2OC(F)F)cn1` (stereo not shown) [Example 601, N-[(Cyclopropylcarbamoyl)methyl]-2-[5-(difluoromethoxy)-6-(2-methylpyrimidin-5-yl)-1,3-benzothiazol-2-yl]-2-methanesulfonylacetamide] was 19 nM.

The assay is the same for the next values; noted with them: reference compounds; EL from conditioned media of HT-1080 cells; 30 min preincubation at 37° C.
`CC(C)c1cc(CNC(=O)C(C)(C)c2nc3ccc(-c4ccccc4)cc3s2)on1` [Reference 2, N-((3-Isopropylisoxazol-5-yl)methyl)-2-methyl-2-(6-phenylbenzo[d]thiazol-2-yl)propanamide, reference compound] gave an IC50 of over 62000 nM.

The IC50 is the concentration at which inhibition is half-maximal.
